Patent publication US20230140798A1, “SYNTHETIC PEPTIDES DIRECTED AGAINST THE METABOTROPIC GLUTAMATE RECEPTOR 5” (Lactocore, Inc., priority 2020, published 2023)
Entries after “also recorded” stand apart in the source; their conditions may differ.

Columns and labels:
[1] = test system: mGluR5 (GRM5); experiment: HEK 293 cells mGluR5-luciferase reporter assay (β-arrestin2 recruitment); format: cell-based, human; conditions: + 1 mM CHPG
From the text: The methodology was previously described by Kroeze (Kroeze et al. (2015). PRESTO-Tango as an open-source resource for interrogation of the druggable human GPCRome. Nat. Struct. Mol. Biol. 22(5): 362) and the principle is illustrated in FIG. 19. Briefly, the cells of HEK293 cell line are transfected with 3 types of plasmids:
Plasmid 1: encodes fusion GRMS-tTA protein. The linker between GRMS and tTA is sensitive to TEV-protease (www.addgene.org/66390/).
Plasmid 2: encodes β-arrestin2/TEV-protease fusion protein (www.addgene.org/107245/).
Plasmid 3: luciferase tTA reporter (www.addgene.org/64127/).
Sufficient quantities of fusion proteins were produced during 24 hours after transfection. mGluR5 (GRM5) activation by a selective agonist CHPG (SEQ ID NO: 18) (1) leads to recruiting of β-arrestin2/TEV-protease fusion protein (2), that cleaves the linker between GRM5 and tTA (3). Released tTA transcription factor (4) binds with its consensus sites in tTA luciferase reporter plasmid (5) that results in activation of luciferase expression. The activity of luciferase can be used to estimate the activity of mGluR5, and application of negative allosteric modulators of mGluR5 should lead to a dose-dependent decrease in luciferase activity in this system (FIG. 19).
Sufficient quantities of the plasmids were produced using standard applications before the experiment. HEK293 cells were co-transfected with three plasmids using polyethylenimine (PEI, 408727, Sigma-Aldrich, USA) 24 hours prior to agonists application. Transfected cells were treated with agonists/antagonists and incubated overnight (16 hours). Antagonists were introduced 10 minutes prior to agonists. Luciferase test was performed using Promega™ Luciferase Assay Systems Kit (PR-E1500, Promega, USA) according to the manufacturer's protocol.
CHPG—orthosteric selective mGlu5 receptor agonist (HB0033, HelloBio, USA). […]

[2] = biological target: T1, human mGluR5 (Homo sapiens, UniProt P41594); experiment: Sodium glutamate-evoked [Ca^2+] responses in CHO-mGluR5 cells (calcium-flux imaging); format: cell-based
T1 construct: expressed in transfected cells; host or cells: CHO cells carrying pcDNA6/TR (T-REx system)
From the text: CHO-mGluR5 cells with tetracycline-induced stable expression of human mGluR5.
The CHO cell line stably expressing human mGluR5 was generated using T-Rex System (Thermo Fisher Scientific Inc., Waltham, Mass., USA) according to the manufacturer's' instructions. Briefly, cDNA encoding human mGluR5 was subcloned into inducible expression vector pcDNA4/TO and was transfected into CHO cells carrying regulatory vector pcDNA6/TR that expresses the tetracycline repressor. After 2 weeks of selection using Blasticidin (5 µg/ml) and zeocin (250 µg/ml), pools of cells were screened for the expression of mGluR5 in the agonist-induced [Ca^2+] uptake assay. Positive cells were expanded and used. mGluR5 expression was induced by adding tetracycline (up to 1 µg/ml) 16 h before testing.
Fluorescent assays were performed using NOVOstar (BMG LABTECH, Ortenberg, Germany). CHO-mGluR5 cells were seeded into black-walled clear-bottomed 96-well plates at a density of 75,000 cells per well (complete media without antibiotics and containing 1 µg/ml of tetracycline to induce receptor expression) and were cultured overnight at 37° C. […] After a 3-min incubation at 37° C., changes in cell fluorescence ([…]) were monitored before and after the addition of the mGLuR5 agonist (1 mM sodium glutamate—Glu-Na). […]

[3] = test system: Wistar rats; experiment: Open Field test in Acute Foot Shock (AFS) stress model; format: in vivo; conditions: 4.5 mg/kg i.p. daily for ten days after AFS
Method: (§1) KEDV (SEQ ID NO: 4) and RAHE (SEQ ID NO: 3) (Lactocore Inc.) were administered intranasally (i.n), daily for 10 days at a dose of 1 mg/kg and 5 mg/kg. Peptides were prepared freshly each day in saline. The solution for i.n. administration of 5 mg/kg in a volume of 15 μl (single administration) contained 1.3 mg KEDV (SEQ ID NO: 4) or RAHE (SEQ ID NO: 3), and a solution for intranasal administration of 1 mg/kg in a volume of 10 μl (single administration) contained 0.26 mg KEDV (SEQ ID NO: 4) or RAHE (SEQ ID NO: 3).
(§2) The tetracyclic antidepressant Maprotiline (MAP, “Lyudiomil”), was used as a drug of comparison. Animals received a daily intraperitoneal injection (i.p) of MAP for ten days (M9651, Merck, in a dose of 4.5 mg/kg, dissolved in saline, 250 μl per administration).
(§3) Stimulation was performed automatically using a software randomizer.
The OF test is a classic method for assessing the level of motor activity and exploratory behavior of rodents in new stressogenic conditions. The test was performed in a cage of 90×90×45 cm without a roof, the floor of which was laid out on squares 15×15 cm and lit from above by a 60 W lamp. On the 5th day after stressing in the LH model, the rat was placed in the center of the OF. The following parameters were measured for 5 minutes: latency to start of moving, the number of crossed squares, the duration of rears and freezing.

[4] = test system: Wistar rats; experiment: Elevated Plus Maze test in Acute Foot Shock (AFS) stress model; format: in vivo
Method: as §1, §2, §3
EPM testing allows characterizing the behavior of rodents under the variable stress conditions, which makes it possible to assess the level of animal anxiety and anxiolytic effects of drugs. On the 6th day after the experimental exposure, the rats were tested one at a time for 5 min in the EPM installation, located at a height of 75 cm above the floor, and consisting of 2 open illuminated and 2 closed arms with exits. The time spent by the animal inside and outside the closed arms (in the open arms and in the center), the number of transitions between the arms, the number of stretch-attended postures were evaluated. Usually, animals tend to stay in the closed arms, anxiolytic treatment results in an increment of the time spent on the open arms of the maze (Pellow et al. (1985). Validation of open: closed arm entries in an elevated plus-maze as a measure of anxiety in the rat. J. Neurosci. Methods, 14(3), 149-167; Walf et al. (2007). The use of the elevated plus maze as an assay of anxiety-related behavior in rodents. Nat. Protoc., 2(2), 322-328).

[5] = test system: Wistar rats; experiment: Dexamethasone test (DXMT), serum corticosterone, AFS model; format: in vivo; conditions: 4.5 mg/kg i.p. daily, after AFS; DXM 10 μg/kg
Method: as §3
Evaluation of the stress-evoked release of glucocorticoid hormones (corticosterone, an analog of cortisol in humans) and its suppression by the introduction of synthetic glucocorticosteroid was performed on the 9-10th day after the development of LH in a two-day dexamethasone test according to the scheme, taking into account the specificity of the circadian rhythm of HPA axis function in rats (Zhukov (1993). The dexamethasone suppression test in genetically different rats exposed to inescapable and escapable electric shocks. Psychoneuroendocrinology, 18(7), 467-474.].
On the first day of the test (DXMT1) at 10:00 AM, animals were injected (i.p.) with saline, then at 04:00 PM on the same day peripheral blood samples were taken to determine the basal level of the hormone, which caused stress, and 30 minutes after taking the rat from the cage and receiving initial sample, re-taken blood to measure hormone stress level.
To study the sensitivity of the HPA system to feedback signals, rats were injected with dexamethasone (DXM, 10 μg/kg, i.p.) the next day (DXMT2) at 10 AM. The procedure for taking blood from the tail vein was repeated after 6 and 6.5 hours. The corticosterone content was determined by enzyme-linked immunosorbent assay with reagent kits “Corticosterone-ELISA” (“Hema”, RF) in two parallel samples.

[6] = test system: Sprague-Dawley rats; experiment: Modified Porsolt Forced Swim test (FST), rats; format: in vivo; conditions: i.p.; group name 5 mg/kg, test substance 20 mg/kg
Method: As part of this modification, two tests are carried out within two days. The installation is a transparent cylinder, 30 cm high, 10 cm in diameter and filled with water (water temperature 21° C.-23° C.) to a mark at a height of 25 cm. On the first day, each animal is placed in the apparatus for ten minutes. Behavioral parameters are not recorded. The animals are placed in the cylinder for 10 minutes again on the second day. The duration of active (vigorous movements with all paws) and passive (weak strokes with hind legs) swimming, as well as immobility (immobilization) (Porsolt et al. (1977) Behavioral despair in mice: a primary screening test for antidepressants. Arch Int Pharmacodyn Ther. 229(2):327-36) are recorded. After each test, the rats are placed in a heated cage until dry. The behavioral indicators in this test are processed using the Real Timer Program developed by Open Science. The sequence of events, their duration, as well as conduct basic statistical data processing are recorded.

[7] = MAP 4.5 mg/kg i.p., AFS, overall median 0.00

T1 sequence (P41594 21-1212): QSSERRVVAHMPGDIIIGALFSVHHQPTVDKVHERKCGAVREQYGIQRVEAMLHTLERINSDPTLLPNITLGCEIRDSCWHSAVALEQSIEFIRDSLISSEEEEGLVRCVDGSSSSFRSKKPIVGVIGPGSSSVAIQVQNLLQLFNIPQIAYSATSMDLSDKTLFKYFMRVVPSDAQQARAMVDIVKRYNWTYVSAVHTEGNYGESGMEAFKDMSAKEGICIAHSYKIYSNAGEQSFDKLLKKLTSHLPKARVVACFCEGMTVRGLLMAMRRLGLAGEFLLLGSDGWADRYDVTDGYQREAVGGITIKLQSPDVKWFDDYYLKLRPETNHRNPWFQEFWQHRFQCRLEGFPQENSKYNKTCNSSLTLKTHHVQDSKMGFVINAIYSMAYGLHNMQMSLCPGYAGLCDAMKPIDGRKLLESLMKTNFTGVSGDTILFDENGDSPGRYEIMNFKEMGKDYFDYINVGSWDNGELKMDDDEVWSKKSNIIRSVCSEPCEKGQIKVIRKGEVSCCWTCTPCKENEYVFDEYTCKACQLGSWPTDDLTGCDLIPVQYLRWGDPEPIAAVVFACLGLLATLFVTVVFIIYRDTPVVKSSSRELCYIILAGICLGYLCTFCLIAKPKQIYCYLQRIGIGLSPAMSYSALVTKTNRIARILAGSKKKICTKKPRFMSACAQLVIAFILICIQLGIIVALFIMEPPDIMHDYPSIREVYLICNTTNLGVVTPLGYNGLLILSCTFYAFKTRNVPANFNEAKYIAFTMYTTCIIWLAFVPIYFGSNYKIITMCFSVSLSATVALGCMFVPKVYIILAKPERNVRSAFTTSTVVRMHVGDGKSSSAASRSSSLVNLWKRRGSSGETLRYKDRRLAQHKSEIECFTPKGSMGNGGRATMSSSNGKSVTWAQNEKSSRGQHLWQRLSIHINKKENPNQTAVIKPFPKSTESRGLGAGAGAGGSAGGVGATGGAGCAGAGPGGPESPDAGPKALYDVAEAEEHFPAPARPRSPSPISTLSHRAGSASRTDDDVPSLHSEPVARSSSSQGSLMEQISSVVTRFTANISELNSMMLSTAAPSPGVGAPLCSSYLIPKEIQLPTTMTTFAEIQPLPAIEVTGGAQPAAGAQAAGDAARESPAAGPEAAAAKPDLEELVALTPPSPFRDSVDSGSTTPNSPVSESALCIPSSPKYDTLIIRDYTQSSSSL

## Cc1ccc(O)c(N=Nc2ccccc2)n1 [SIB 1757]
[1]; 10 μM
  effect on CHPG-induced mGluR5 activity (luciferase signal): inhibition of mGluR5 activity; also recorded: significant decrease of luciferase signal
[1]; 100 μM
  effect on CHPG-induced mGluR5 activity (luciferase signal): inhibition of mGluR5 activity

## Cc1cccc(C#Cc2ccccc2)n1 [MPEP, 2-methyl-6-(phenylethynyl)-pyridine]
[2]; pre-treatment 0.1, 1, 10, 100 μM, 1 mM GluNa
  effect on GluNa-induced activation: abolished GluNa-induced activation

## CNCCCC12CCC(c3ccccc31)c1ccccc12 [MAP, Maprotiline]
[3]
  freezing behavior vs stressed saline-treated animals: significant reduction of freezing behavior
[4]; 4.5 mg/kg i.p. daily, after AFS
  proportion of animals that went to the open arms of the maze: 78%
[4]; MAP 4.5 mg/kg i.p., AFS
  time in open arms <=Median: obs. − exp.: −2.86
  time in open arms >Median: obs. − exp.: 2.86
[4]; [7]
  time in open arms <=Median: observed (animals): 2.00
  time in open arms >Median: observed (animals): 7.00
[5]
  suppression of stress CS levels in serum by DXM: more than 50%

## CNCCC(Oc1ccc(C(F)(F)F)cc1)c1ccccc1 (stereo not drawn) [Fluoxetine, fluoxetine]
[6]
  antidepressant-like properties in FST: not observed

## N[C@@H](CCC(=O)[O-])C(=O)[O-].[Na+].[Na+] [GluNa, sodium glutamate]
[2]; 1 mM, CHO-mGluR5 cells
  intracellular [Ca^2+] levels vs buffer: elevated intracellular [Ca^2+] levels
